Assays:
5-Fluorouracil = compound: O=c1[nH]cc(F)c(=O)[nH]1 [5-Fluorouracil]; conditions: max 20 µM
Summary of the method: (§1)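 Cancer cell lines were seeded in 1536-well plates in 7.5 μl DMEM/F12 or RPMI with 10% FBS, held 24 hours at 37°C and 5% CO2, then dosed for 72 hours (final DMSO typically 0.2%). Viability was read by CellTiter-Glo 2.0 luminescence and scaled between blank-well and DMSO-well means. The single-agent IC50 comes from dose responses fitted to a two-parameter logistic curve with a non-linear mixed effects model.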

Trametinib = compound: CC(=O)Nc1cccc(-n2c(=O)n(C3CC3)c(=O)c3c(Nc4ccc(I)cc4F)n(C)c(=O)c(C)c32)c1 [Trametinib]; conditions: max 1 µM
Summary of the method: as §1

AZD8186 = compound: C[C@@H](Nc1cc(F)cc(F)c1)c1cc(C(=O)N(C)C)cc2c(=O)cc(N3CCOCC3)oc12 [AZD8186]; conditions: max 10 µM
Summary of the method: as §1

Lapatinib = compound: CS(=O)(=O)CCNCc1ccc(-c2ccc3ncnc(Nc4ccc(OCc5cccc(F)c5)c(Cl)c4)c3c2)o1 [Lapatinib]; conditions: max 10 µM
Summary of the method: as §1

AZD1775 = compound: C=CCn1c(=O)c2cnc(Nc3ccc(N4CCN(C)CC4)cc3)nc2n1-c1cccc(C(C)(C)O)n1 [AZD1775]; conditions: max 3 µM
Summary of the method: as §1

MK-2206 = compound: NC1(c2ccc(-c3nc4ccn5c(=O)[nH]nc5c4cc3-c3ccccc3)cc2)CCC1 [MK-2206]; conditions: max 10 µM
Summary of the method: as §1

AZD0156 = compound: CN(C)CCCOc1ccc(-c2ccc3ncc4c(c3c2)n(C2CCOCC2)c(=O)n4C)cn1 [AZD0156]; conditions: max 3 µM
Summary of the method: as §1

AZD2811 = compound: CCN(CCO)CCCOc1ccc2c(Nc3cc(CC(=O)Nc4cccc(F)c4)[nH]n3)ncnc2c1 [AZD2811]; conditions: max 1 µM
Summary of the method: as §1

Doxorubicin = compound: COc1cccc2c1C(=O)c1c(O)c3c(c(O)c1C2=O)C[C@@](O)(C(=O)CO)C[C@@H]3O[C@H]1C[C@H](N)[C@H](O)[C@H](C)O1 [Doxorubicin]; conditions: max 1 µM
Summary of the method: as §1

AZD6738 = compound: C[C@@H]1COCCN1C2=NC(=NC(=C2)C3(CC3)[S@](=N)(=O)C)C4=C5C=CNC5=NC=C4 [AZD6738]; conditions: max 10 µM
Summary of the method: as §1

AZD7648 = compound: Cc1cc2ncnn2cc1Nc1ncc2c(n1)n(C1CCOCC1)c(=O)n2C [AZD7648]; conditions: max 10 µM
Summary of the method: as §1

SN-38 = compound: CCc1c2c(nc3ccc(O)cc13)-c1cc3c(c(=O)n1C2)COC(=O)[C@]3(O)CC [SN-38]; conditions: max 0.3 µM
Summary of the method: as §1

Selumetinib = compound: Cn1cnc2c(F)c(Nc3ccc(Br)cc3Cl)c(C(=O)NOCCO)cc21 [Selumetinib]; conditions: max 10 µM
Summary of the method: as §1

Prexasertib = compound: COc1cccc(OCCCN)c1-c1cc(Nc2cnc(C#N)cn2)n[nH]1 [Prexasertib]; conditions: max 1 µM
Summary of the method: as §1

AZD1390 = compound: CC(C)n1c(=O)n(C)c2cnc3cc(F)c(-c4ccc(OCCCN5CCCCC5)nc4)cc3c21 [AZD1390]; conditions: max 0.3 µM
Summary of the method: as §1

SRA737 = compound: N#Cc1cnc(Nc2cc(NC[C@H]3CNCCO3)c(C(F)(F)F)cn2)cn1 [SRA737]; conditions: max 10 µM
Summary of the method: as §1

Carboplatin = compound: C1CC(C1)(C(=O)[O-])C(=O)[O-].N.N.[Pt+2] [Carboplatin]; conditions: max 10 µM
Summary of the method: as §1

Savolitinib = compound: C[C@@H](c1ccc2nccn2c1)n1nnc2ncc(-c3cnn(C)c3)nc21 [Savolitinib]; conditions: max 1 µM
Summary of the method: as §1

AZD4320 = compound: CN(CC[C@H](CSC1=CC=CC=C1)NC2=C(C=C(C=C2)S(=O)(=O)NC(=O)C3=CC=C(C=C3)N4CCC(CC4)[C@H](C5=CC=CC=C5C6=CC=C(C=C6)Cl)O)S(=O)(=O)C(F)(F)F)CCO [AZD4320]; conditions: max 1 µM
Summary of the method: as §1

SG3199 = compound: CC1=CN2[C@@H](C1)C=NC3=CC(=C(C=C3C2=O)OC)OCCCCCOC4=C(C=C5C(=C4)N=C[C@@H]6CC(=CN6C5=O)C)OC [SG3199]; conditions: max 0.001 µM
Summary of the method: as §1

Venetoclax = compound: CC1(C)CCC(CN2CCN(c3ccc(C(=O)NS(=O)(=O)c4ccc(NCC5CCOCC5)c([N+](=O)[O-])c4)c(Oc4cnc5[nH]ccc5c4)c3)CC2)=C(c2ccc(Cl)cc2)C1 [Venetoclax]; conditions: max 1 µM
Summary of the method: as §1

Taselisib = compound: Cc1nc(-c2cn3c(n2)-c2ccc(-c4cnn(C(C)(C)C(N)=O)c4)cc2OCC3)n(C(C)C)n1 [Taselisib]; conditions: max 10 µM
Summary of the method: as §1

[1] = compound: O=C(Nc1ccc2[nH]nc(-c3ccncc3)c2c1)[C@@H]1CCN(CC(=O)N2CCN(c3ccc(-c4ncccn4)cc3)CC2)C1; conditions: max 5 µM
Summary of the method: as §1

Crizotinib = compound: C[C@@H](Oc1cc(-c2cnn(C3CCNCC3)c2)cnc1N)c1c(Cl)ccc(F)c1Cl [Crizotinib]; conditions: max 10 µM
Summary of the method: as §1

Paclitaxel = compound: CC(=O)O[C@H]1C(=O)[C@@]2(C)[C@H]([C@H](OC(=O)c3ccccc3)[C@]3(O)C[C@H](OC(=O)[C@H](O)[C@@H](NC(=O)c4ccccc4)c4ccccc4)C(C)=C1C3(C)C)[C@]1(OC(C)=O)CO[C@@H]1C[C@@H]2O [Paclitaxel]; conditions: max 3 µM
Summary of the method: as §1

Etoposide = compound: COc1cc([C@@H]2c3cc4c(cc3[C@@H](O[C@@H]3O[C@@H]5CO[C@@H](C)O[C@H]5[C@H](O)[C@H]3O)[C@H]3COC(=O)[C@H]23)OCO4)cc(OC)c1O [Etoposide]; conditions: max 10 µM
Summary of the method: as §1

Gefitinib = compound: COc1cc2ncnc(Nc3ccc(F)c(Cl)c3)c2cc1OCCCN1CCOCC1 [Gefitinib]; conditions: max 10 µM
Summary of the method: as §1

Alisertib = compound: COc1cc(Nc2ncc3c(n2)-c2ccc(Cl)cc2C(c2c(F)cccc2OC)=NC3)ccc1C(=O)O [Alisertib]; conditions: max 10 µM
Summary of the method: as §1

Gemcitabine = compound: Nc1ccn([C@@H]2O[C@H](CO)[C@@H](O)C2(F)F)c(=O)n1 [Gemcitabine]; conditions: max 0.3 µM
Summary of the method: as §1

AZD5991 = compound: Cc1c2c(nn1C)CSCc1cc(n(C)n1)CSc1cc(c3ccccc3c1)OCCCc1c(C(=O)O)n(C)c3c-2c(Cl)ccc13 [AZD5991]; conditions: max 1 µM
Summary of the method: as §1

Palbociclib = compound: CC(=O)c1c(C)c2cnc(Nc3ccc(N4CCNCC4)cn3)nc2n(C2CCCC2)c1=O [Palbociclib]; conditions: max 10 µM
Summary of the method: as §1

Olaparib = compound: O=C(c1cc(Cc2n[nH]c(=O)c3ccccc23)ccc1F)N1CCN(C(=O)C2CC2)CC1 [Olaparib]; conditions: max 10 µM
Summary of the method: as §1

Dasatinib = compound: CC1=C(C(=CC=C1)Cl)NC(=O)C2=CN=C(S2)NC3=CC(=NC(=N3)C)N4CCN(CC4)CCO [Dasatinib]; conditions: max 2 µM
Summary of the method: as §1

AZD5153 = compound: COc1nnc2ccc(N3CCC(c4ccc(OCCN5CCN(C)C(=O)[C@H]5C)cc4)CC3)nn12 [AZD5153]; conditions: max 1 µM
Summary of the method: as §1

AZD5363 = compound: C1CN(CCC1(C(=O)N[C@@H](CCO)C2=CC=C(C=C2)Cl)N)C3=NC=NC4=C3C=CN4 [AZD5363]; conditions: max 10 µM
Summary of the method: as §1

Row | Cell Line | IC50, cell viability 72 h (5-Fluorouracil) [µM] | IC50, cell viability 72 h (Trametinib) [µM] | IC50, cell viability 72 h (AZD8186) [µM] | IC50, cell viability 72 h (Lapatinib) [µM] | IC50, cell viability 72 h (AZD1775) [µM] | IC50, cell viability 72 h (MK-2206) [µM] | IC50, cell viability 72 h (AZD0156) [µM] | IC50, cell viability 72 h (AZD2811) [µM] | IC50, cell viability 72 h (Doxorubicin) [µM] | IC50, cell viability 72 h (AZD6738) [µM] | IC50, cell viability 72 h (AZD7648) [µM] | IC50, cell viability 72 h (SN-38) [µM] | IC50, cell viability 72 h (Selumetinib) [µM] | IC50, cell viability 72 h (Prexasertib) [µM] | IC50, cell viability 72 h (AZD1390) [µM] | IC50, cell viability 72 h (SRA737) [µM] | IC50, cell viability 72 h (Carboplatin) [µM] | IC50, cell viability 72 h (Savolitinib) [µM] | IC50, cell viability 72 h (AZD4320) [µM] | IC50, cell viability 72 h (SG3199) [µM] | IC50, cell viability 72 h (Venetoclax) [µM] | IC50, cell viability 72 h (Taselisib) [µM] | IC50, cell viability 72 h [1] [µM] | IC50, cell viability 72 h (Crizotinib) [µM] | IC50, cell viability 72 h (Paclitaxel) [µM] | IC50, cell viability 72 h (Etoposide) [µM] | IC50, cell viability 72 h (Gefitinib) [µM] | IC50, cell viability 72 h (Alisertib) [µM] | IC50, cell viability 72 h (Gemcitabine) [µM] | IC50, cell viability 72 h (AZD5991) [µM] | IC50, cell viability 72 h (Palbociclib) [µM] | IC50, cell viability 72 h (Olaparib) [µM] | IC50, cell viability 72 h (Dasatinib) [µM] | IC50, cell viability 72 h (AZD5153) [µM] | IC50, cell viability 72 h (AZD5363) [µM]
1 | A4-Fuk (B-Lymphoblastic Leukemia) | 3.92 | 0.282 | 5.86 | 7.57 | 0.11 | 2.77 | 2.42 | > 1 | 0.237 | 2.21 | 5.15 | 0.0174 | > 10 | 0.00745 | > 0.3 | 0.844 | > 10 | > 1 | > 1 | > 0.001 | 0.966 | 0.234 | 0.771 | 2.21 | 0.00317 | 0.321 | > 10 | 0.207 | 0.00682 | 0.0776 | 4.24 | > 10 | > 2 | 0.0294 | 2.06
2 | COLO-668 (Small Cell Lung Carcinoma) | > 20 | 0.408 | > 10 | > 10 | > 3 | > 10 | > 3 | > 1 | 0.329 | 8.16 | > 10 | 0.00532 | > 10 | 0.0637 | > 0.3 | > 10 | > 10 | > 1 | 0.319 | > 0.001 | > 1 | 5.34 | 4.48 | > 10 | > 3 | > 10 | > 10 | > 10 | 0.0413 | > 1 | > 10 | > 10 | > 2 | > 1 | > 10
3 | COLO-679 (Melanoma) | > 20 | 0.0037 | > 10 | > 10 | > 3 | > 10 | > 3 | > 1 | 0.342 | 4.92 | > 10 | 0.0461 | 0.242 | 0.0112 | > 0.3 | 1.89 | > 10 | > 1 | > 1 | > 0.001 | > 1 | > 10 | 0.0906 | > 10 | 0.658 | 7.18 | > 10 | > 10 | 0.0152 | > 1 | > 10 | > 10 | > 2 | > 1 | > 10
4 | Ca-Ski (Cervical Carcinoma) | > 20 | > 1 | > 10 | > 10 | 0.657 | > 10 | > 3 | > 1 | 0.355 | > 10 | > 10 | 0.0117 | > 10 | 0.0838 | > 0.3 | > 10 | > 10 | > 1 | > 1 | > 0.001 | > 1 | 2.22 | > 5 | > 10 | 0.0238 | 8.85 | > 10 | 8.32 | 0.222 | > 1 | > 10 | > 10 | 0.558 | 0.867 | > 10
5 | DU-145 (Prostate Carcinoma) | > 20 | > 1 | > 10 | > 10 | > 3 | > 10 | > 3 | > 1 | > 1 | > 10 | > 10 | 0.0473 | > 10 | 0.262 | > 0.3 | > 10 | > 10 | > 1 | > 1 | > 0.001 | > 1 | > 10 | > 5 | > 10 | 0.187 | > 10 | > 10 | > 10 | > 0.3 | > 1 | > 10 | > 10 | > 2 | > 1 | > 10

— the supplement of paper PMC11061612
